{"source": "patent US9283235B2", "about": "“Intermittent lowering of cortisol as treatment of clinical conditions associated with abnormal concentrations of cortisol in animals” (Stegram Pharmaceuticals Limited, priority 2001, dated 2016)", "key": {"[1]": {"test_system": "dogs with hyperadrenocorticism (HAC)", "assay": "Prospective study of trilostane in dogs with spontaneous hyperadrenocorticism (HAC): clinical signs and survival", "type": "in vivo, dog", "experimental": "Animals were entered into a prospective study and all animals required clinical and laboratory signs of hyperadrenocorticism as well as a final diagnosis of this disease. Data collected from each case included a clinical-historicy and physical examination, full blood count (CBC), serum biochemical profile, urinalysis and abdominal ultrasound. An ACTH-stimulation test was performed in all dogs. […] Dogs that had been treated for HAC other medication needed to be off these drugs for at least 10 days. Dogs with renal or hepatic insufficiency and dogs that received steroids were not included in the study.\nDogs with pituitary dependant hyperadrenocorticism or adrenal tumour which was unresectable or the owners were unwilling to have surgery performed, respectively, were treated with trilostane. The initial dose for dogs[…] was 30 mg once daily, dogs between 5 and 15 kg received 60 mg once daily and dogs>15 kg received 120 mg once daily. Dosages were adjusted based on clinical signs, blood biochemical parameters and an ACTH stimulation test.\n(§1) Follow-up re-examinations took place after 10 days, 4 weeks, 3 mouths, 6 months and then every 6 months or within 4 weeks of adjusting the dosage. At these points, owners were carefully questioned about their perception of the dogs general well being, dissolution of clinical signs and potential side effects and a physical examination was performed. A full biochemical profile and an ACTH stimulation test were carried out. Further tests such as urinanalysis, urine culture, thoracic radiographs, etc. were done if deemed necessary. If the clinical sips of hyperadrenocorticism (polyuria/polydipsia, polyphagia, exercise intolerance, etc.) were still present and if the post-ACTH cortisol concentration remained above 220 nmol/l, trilostane was given twice daily at the same dosage."}, "[2]": {"test_system": "ACTH stimulation of the adrenal gland", "assay": "ACTH stimulation test, serum cortisol in dogs", "type": "in vivo, dog", "experimental": "Dogs were entered into the study sequentially over a period of 2-3.5 years Owners were informed about the experimental nature of the treatment and signed a consent form. The ACTH stimulation test was performed by collection of serum samples before and one hour after intravenous injection of ACTH (Synacthen, Alliance) at a dose of 0.125 mg for dogs weighing less than 15 kg, and 0.25 mg for dogs weighing greater than 15 kg. Cortisol concentration was measured by radioimmunoassay previously validated for dogs Blood for endogenous ACTH was collected into a cooled EDTA tube in ice, centrifuged immediately and the frozen at −20° C. Abdominal ultrasound was performed by an experienced board-certified radiologist and adrenal thickness was assessed as a single measurement made perpendicular to the long axis and was defined as the greatest dorso-ventral dimension.\nDogs with Cushing's disease were given an ACTH stimulation test at 12, 35 and 81 days (average) during a course of treatment with a single daily dose of trilostane of 5-20 mg/kg. […] Thus, trilostane has blunted ACTH stimulation of the adrenal gland."}, "serum cortisol": {"test_system": "serum cortisol", "assay": "Canine serum cortisol over 24 hours pre and post trilostane", "type": "in vivo, dog", "conditions": "for Canine serum cortisol, post: individual dogs; for Canine serum cortisol, post, Mean: mean of dogs", "from_the_text": "With this level of lowering there was relief of the symptoms of the Cushing's disease."}, "dogs with Alopecia X": {"test_system": "dogs with Alopecia X", "assay": "Treatment of Alopecia X in dogs, hair re-growth", "type": "in vivo, dog", "conditions": "once-daily dose", "from_the_text": "To study the effect of trilostane in the treatment of Alopecia X a total of 11 dogs with the condition were examined along with 10 unaffected dogs. The hormonal abnormalities were identified, with increases in cortisol and 17 OHP concentrations. Trilostane in a once-daily dose was given to the affected animals. Five of the six Pomeranians (83%) and all four of the Miniature poodles have responded to trilostane, showing hair re-growth in the affected areas."}, "[3]": {"assay": "Trilostane and ketotrilostane concentrations in dogs after a single daily dose", "type": "in vivo, dog", "experimental": "Trilostane concentrations in the plasma of 6 dogs: day 0, phase 1 (one 60 mg capsule per day), study no. GB009/01-001.\nKetotrilostane concentrations in the plasma of 6 dogs: day 0, phase 1 (one 60 mg capsule per day), study no. GB009/01-001.\nThe significance of this is that the metabolite, ketotrilostane, is not retained in the body for an extended period of time."}, "[4]": {"test_system": "dogs with hyperadrenocorticism (HAC)", "assay": "Tolerability and adverse events of trilostane in dogs with HAC", "type": "in vivo, dog", "experimental": "as §1\nStarting dose was between 1.8 and 20 mg/kg (mean: 6.0; SD 3.4 mg/kg). […] Two cross bred dogs with classical clinical signs and endocrine testing results of HAC were started on 6.5 and 7.5 mg/kg trilostane. […] One of the dogs also was hyperkalaernic and hyponatraemic (ratio:22.3). In both dogs no more trilostane was given thereafter and the dogs are free of clinical signs after 2.7 and 1.4 years. In the 9 dogs with adrenal tumours, which started on the same dosing protocol as the dogs with PDH, two had the dose halved, three stayed on the original dose while in 4 dogs the dose was increased up to 300% of the original dose."}, "advanced breast cancer": {"test_system": "advanced breast cancer", "conditions": "published studies (Williams et al 1993; Ingle et al 1990); cited from earlier work"}}, "note": "“And” between values parts separate entries of the source, which are not always exact repeats. Equal entries are not always repeated.", "data": [{"smiles": "CC12CCC3C(CC[C@@]45O[C@@H]4C(=O)C(C#N)CC35C)C1CC[C@@H]2O", "note": "(stereo partly drawn) [Trilostane, 2α-cyano-4α,5α-epoxyandrostan-17β-ol-3-one]", "values": [{"measurement": "Mean time to euthanasia or death, dogs with PDH", "setting": "[1]; 22 dogs, SD 195.1, range 27-730 days", "result": 230.9, "unit": "days"}, {"measurement": "Mean time since commencing treatment, dogs with PDH alive", "setting": "[1]; 32 dogs, SD 285.2, range 105 to 1120 days", "result": 417.3, "unit": "days"}, {"measurement": "Skin abnormalities", "setting": "[1]; all dogs with skin abnormalities, 2-3 months after starting", "result": "marked improvement with normal hair growth"}, {"measurement": "Dogs in which polyuria/polydipsia and polyphagia dissipated within the first 10 days of treatment", "setting": "[1]; dog, in vivo", "result": 29, "unit": "dogs"}, {"measurement": "Dogs in which polyuria/polydipsia and polyphagia dissipated within the first month of treatment", "setting": "[1]; dog, in vivo", "result": 14, "unit": "dogs"}, {"measurement": "Dogs with clinical signs improved but always some clinical signs of HAC", "setting": "[1]; dog, in vivo", "result": 6, "unit": "dogs"}, {"measurement": "Dogs with PDH alive", "setting": "[1]; of 54 dogs with PDH", "result": 32, "unit": "dogs"}, {"measurement": "Median survival, dogs with adrenal tumour that died or were euthanised", "setting": "[1]; six dogs, SD 174.9 days", "result": 260, "unit": "days"}, {"measurement": "% pre Trilostane Cortisol", "setting": "[2]; 12 days of Trilostane treatment", "result": "−29.7", "unit": "%"}, {"measurement": "Post ACTH stimulation test serum Cortisol", "setting": "[2]; 12 days of Trilostane treatment (5-10 mg/k), 53 dogs", "result": 249, "unit": "nmol/L"}, {"measurement": "% pre Trilostane Cortisol", "setting": "[2]; 35 days of Trilostane treatment", "result": "−30.0", "unit": "%"}, {"measurement": "Post ACTH stimulation test serum Cortisol", "setting": "[2]; 35 days of Trilostane treatment (5-10 mg/k), 59 dogs", "result": 231, "unit": "nmol/L"}, {"measurement": "% pre Trilostane Cortisol", "setting": "[2]; 81 days of Trilostane treatment", "result": "−27.3", "unit": "%"}, {"measurement": "Post ACTH stimulation test serum Cortisol", "setting": "[2]; 81 days of Trilostane treatment (5-10 mg/k), 48 dogs", "result": 214, "unit": "nmol/L"}, {"measurement": "Serum cortisol post ACTH as % of the original value", "setting": "[2]; first re-examination, all dogs", "result": "less than 61%"}, {"measurement": "Cortisol response to ACTH, in words", "setting": "[2]; single daily dose 5-20 mg/kg, vs non-treatment controls", "result": "markedly reduced"}, {"measurement": "Serum cortisol lowering after daily dose, in words", "setting": "serum cortisol; dogs with Cushing's disease", "result": "reduced significantly at 4 hrs"}, {"measurement": "Canine serum cortisol, post", "setting": "serum cortisol; 4 hrs after dose, Trilostane 5–10 mg/k over 4–21 days", "result": "5 nmol/l (4×) and 62 nmol/l (2×) and 10 nmol/l and 60 nmol/l and 57 nmol/l and 63 nmol/l"}, {"measurement": "Canine serum cortisol, post", "setting": "serum cortisol; 8 hrs after dose", "result": "5 nmol/l (4×) and 48 nmol/l and 171 nmol/l and 51 nmol/l and 262 nmol/l and 183 nmol/l and 315 nmol/l"}, {"measurement": "Canine serum cortisol, post", "setting": "serum cortisol; 12 hrs after dose", "result": "5 nmol/l and 75 nmol/l and 83 nmol/l and 66 nmol/l (2×) and 158 nmol/l and 197 nmol/l and 143 nmol/l and 164 nmol/l and 318 nmol/l"}, {"measurement": "Canine serum cortisol, post", "setting": "serum cortisol; 19 hrs after dose", "result": "52 nmol/l and 101 nmol/l and 92 nmol/l and 63 nmol/l and 85 nmol/l and 183 nmol/l (3×) and 139 nmol/l and 230 nmol/l"}, {"measurement": "Canine serum cortisol, post", "setting": "serum cortisol; 20 hrs after dose", "result": "166 nmol/l and 105 nmol/l and 86 nmol/l and 97 nmol/l and 61 nmol/l and 154 nmol/l and 144 nmol/l (2×) and 108 nmol/l and 199 nmol/l"}, {"measurement": "Canine serum cortisol, post", "setting": "serum cortisol; 24 hrs after dose", "result": "117 nmol/L and 109 nmol/L and 51 nmol/L and 74 nmol/L and 66 nmol/L and 171 nmol/L and 144 nmol/L and 131 nmol/L and 154 nmol/L and 246 nmol/L"}, {"measurement": "Canine serum cortisol, post", "setting": "serum cortisol; 28 hrs after dose", "result": "147 nmol/L and 112 nmol/L and 75 nmol/L and 86 nmol/L and 53 nmol/L and 124 nmol/L and 190 nmol/L and 174 nmol/L and 246 nmol/L and 313 nmol/L"}, {"measurement": "Canine serum cortisol, post, Mean", "setting": "serum cortisol; 4 hrs", "result": 33, "unit": "nmol/L"}, {"measurement": "Canine serum cortisol, post, Mean", "setting": "serum cortisol; 8 hrs", "result": 105, "unit": "nmol/L"}, {"measurement": "Canine serum cortisol, post, Mean", "setting": "serum cortisol; 12 hrs", "result": 130, "unit": "nmol/L"}, {"measurement": "Canine serum cortisol, post, Mean", "setting": "serum cortisol; 19 hrs", "result": 131, "unit": "nmol/L"}, {"measurement": "Canine serum cortisol, post, Mean", "setting": "serum cortisol; 20 hrs", "result": 126, "unit": "nmol/L"}, {"measurement": "Canine serum cortisol, post, Mean", "setting": "serum cortisol; 24 hrs", "result": 126, "unit": "nmol/L"}, {"measurement": "Canine serum cortisol, post, Mean", "setting": "serum cortisol; 28 hrs", "result": 152, "unit": "nmol/L"}, {"measurement": "Miniature poodles responding, hair re-growth in the affected areas", "setting": "dogs with Alopecia X", "result": "all four"}, {"measurement": "Pomeranians responding, hair re-growth in the affected areas", "setting": "dogs with Alopecia X; five of six", "result": 83, "unit": "%"}, {"measurement": "Elimination of trilostane", "setting": "[3]; after single daily dose", "result": "rapid elimination"}, {"measurement": "Time of peak serum concentration of trilostane", "setting": "[3]; after single daily dose (FIG. 1, one 60 mg capsule per day, 6 dogs)", "result": "1 to 3", "unit": "h"}, {"measurement": "Biochemistry abnormalities during the course of therapy", "setting": "[4]; all without clinical consequence", "result": "one episode of hyperkalaemia, two episodes of azotaemia, three episodes of hyperbilirubinaemia and two episodes of hypercalcaemia"}, {"measurement": "Acute deaths", "setting": "[4]; dog, in vivo", "result": "Three dogs died acutely at home"}, {"measurement": "Tolerability", "setting": "[4]; starting dose 1.8 to 20 mg/kg", "result": "generally well tolerated"}, {"measurement": "Hyperkalaemia and hyponatraemia", "setting": "[4]; trilostane stopped, both dogs euthanised", "result": "two dogs showed hyperkalaemia and hyponatraemia prior to clinical deterioration"}, {"measurement": "ACTH stimulation test leading to stop of the drug", "setting": "[4]; two cross bred dogs started on 6.5 and 7.5 mg/kg, after two and three months", "result": "both showed a flat-lined ACTH stimulation test"}, {"measurement": "Response rate", "setting": "advanced breast cancer", "result": "29% and 38%"}]}]}
